Read-outs that look alike come from different tables or passages of the source.
Key:
[1] = target: T1, wheat germ agglutinin (WGA) (Triticum aestivum, UniProt P10969); assay: enzyme-linked lectin assay (ELLA): inhibition of binding of HRP-labeled WGA to covalently immobilized GlcNAc; set-up: species or system Triticum vulgaris; settings: for β (relative inhibitory potency): referenced to N,N'-diacetylchitobiose (β = 1); for fold lower IC50 value than GlcNAc: relative to GlcNAc
T1 sequence (P10969 1-171 limits assumed): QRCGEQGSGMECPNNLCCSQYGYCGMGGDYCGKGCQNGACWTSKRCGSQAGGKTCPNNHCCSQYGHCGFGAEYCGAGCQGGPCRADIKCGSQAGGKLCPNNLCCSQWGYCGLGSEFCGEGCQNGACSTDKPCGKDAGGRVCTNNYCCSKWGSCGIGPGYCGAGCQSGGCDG
Protocol: Binding potencies of compounds C1–C6, GlcNAc, and N,N’-diacetylchitobiose were determined by an ELLA employing covalently immobilized GlcNAc as a reference ligand, as described recently. GlcNAc-coated microtiter plates were incubated with mixtures of horseradish-peroxidase-labeled WGA (HRP-WGA) and synthetic WGA ligands in varying concentrations. After incubation, the plates were washed and the remaining HRP-WGA bound to the microtiter plates was quantified by a HRP-catalyzed color reaction. From these curves the concentrations at which the binding of HRP–WGA to GlcNAc is reduced by 50% (IC50 values) were determined as a measure of the potency of the synthesized inhibitors (Table 2). Also shown in Table 2 are the relative inhibitory potencies (β values) referenced to N,N’-diacetylchitobiose (β = 1).

WGA = tested on: WGA; set-up: method as in PMID 1472499; settings: WGA–ligand interaction; cited from earlier work
[2] = inhibition of binding of HRP-labeled WGA to covalently immobilized GlcNAc, read-out: IC50

| Structure (SMILES) | IC50 [1, 2] [µM] | β (relative inhibitory potency) [1] | fold lower IC50 value than GlcNAc [1] | association constant K (WGA) | IC50 ([1]; calculated per contained chitobiose, read-out: IC50 per contained chitobiose) [µM] | fold increased inhibition potency over the best divalent ligand C4 ([1]; relative to C4) | relative potency per chitobiose residue ([1]; relative to N,N'-diacetylchitobiose, per chitobiose residue) |
| --- | --- | --- | --- | --- | --- | --- | --- |
| CC(=O)N[C@H]1[C@H](OCc2cn(Cc3ccccc3)nn2)O[C@H](CO)[C@@H](O[C@@H]2O[C@H](CO)[C@@H](O)[C@H](O)[C@H]2NC(C)=O)[C@@H]1O [C1] | 290 | 2.1 |  |  |  |  |  |
| CC(=O)N[C@H]1[C@H](O[C@H]2[C@H](O)[C@@H](NC(C)=O)C(O)O[C@@H]2CO)O[C@H](CO)[C@@H](O)[C@@H]1O (stereo partly drawn) [N,N'-diacetylchitobiose, reference compound] | 620 | 1 | 82 | 5 × 10^3 to 2 × 10^4 M^–1 |  |  |  |
| CC(=O)N[C@H]1[C@H](OCc2cn(CCCOCCOCCOCCCn3cc(CO[C@@H]4O[C@H](CO)[C@@H](O[C@@H]5O[C@H](CO)[C@@H](O)[C@H](O)[C@H]5NC(C)=O)[C@H](O)[C@H]4NC(C)=O)nn3)nn2)O[C@H](CO)[C@@H](O[C@@H]2O[C@H](CO)[C@@H](O)[C@H](O)[C@H]2NC(C)=O)[C@@H]1O [C5] | 0.72 |  |  |  |  |  |  |
| CC(=O)N[C@@H]1[C@@H](O)[C@H](O)[C@@H](CO)O[C@H]1O [GlcNAc, N-acetylglucosamine, reference compound] | 51000 | 1/82 |  | 2 × 10^2 to 1.3 × 10^3 M^–1 |  |  |  |
| CC(=O)N[C@H]1[C@H](OCc2cn(Cc3cccc(Cn4cc(CO[C@@H]5O[C@H](CO)[C@@H](O[C@@H]6O[C@H](CO)[C@@H](O)[C@H](O)[C@H]6NC(C)=O)[C@H](O)[C@H]5NC(C)=O)nn4)c3)nn2)O[C@H](CO)[C@@H](O[C@@H]2O[C@H](CO)[C@@H](O)[C@H](O)[C@H]2NC(C)=O)[C@@H]1O [C2] | 1.3 | 480 |  |  |  |  |  |
| CC(=O)N[C@H]1[C@H](OCc2cn(Cc3ccc(Cn4cc(CO[C@@H]5O[C@H](CO)[C@@H](O[C@@H]6O[C@H](CO)[C@@H](O)[C@H](O)[C@H]6NC(C)=O)[C@H](O)[C@H]5NC(C)=O)nn4)cc3)nn2)O[C@H](CO)[C@@H](O[C@@H]2O[C@H](CO)[C@@H](O)[C@H](O)[C@H]2NC(C)=O)[C@@H]1O [C3] | 1.9 | 330 |  |  |  |  |  |
| CC(=O)N[C@H]1[C@H](OCc2cn(CCN(CCn3cc(CO[C@@H]4O[C@H](CO)[C@@H](O[C@@H]5O[C@H](CO)[C@@H](O)[C@H](O)[C@H]5NC(C)=O)[C@H](O)[C@H]4NC(C)=O)nn3)CCn3cc(CO[C@@H]4O[C@H](CO)[C@@H](O[C@@H]5O[C@H](CO)[C@@H](O)[C@H](O)[C@H]5NC(C)=O)[C@H](O)[C@H]4NC(C)=O)nn3)nn2)O[C@H](CO)[C@@H](O[C@@H]2O[C@H](CO)[C@@H](O)[C@H](O)[C@H]2NC(C)=O)[C@@H]1O [C6] | 0.22 | 2800 | 230000 |  | 0.66 | 2.8 |  |
| CC(=O)N[C@H]1[C@H](OCc2cn(CCCOCCCCOCCCn3cc(CO[C@@H]4O[C@H](CO)[C@@H](O[C@@H]5O[C@H](CO)[C@@H](O)[C@H](O)[C@H]5NC(C)=O)[C@H](O)[C@H]4NC(C)=O)nn3)nn2)O[C@H](CO)[C@@H](O[C@@H]2O[C@H](CO)[C@@H](O)[C@H](O)[C@H]2NC(C)=O)[C@@H]1O [C4] | 0.6 |  |  |  |  |  | 500 |
